Experimental data reported in ChEMBL document CHEMBL1201862, “PubChem BioAssay data set” (2004).
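Values below derive from 48-hour exposures of cells grown in 96-well plates, with endpoints linearly interpolated between the two concentrations bracketing the appropriate inhibition level. GI50 marks 50% less growth.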 Activity calls are given as the source filed them. Cut-off read from the data, not from the text of the source: active = GI50 up to about 1.1 µM and inactive = higher.

Experiments:
Assay in all cases: inhibition of tumour cell growth, NCI panel, 48 h
NCI-H23 = test system: NCI-H23
SW-620 = test system: SW-620
HOP-62 = test system: HOP-62
OVCAR-5 = test system: OVCAR-5
NCI-H460 = test system: NCI-H460
SF-268 = test system: SF-268
Hs-578T = test system: Hs-578T
OVCAR-4 = test system: OVCAR-4
SNB-19 = test system: SNB-19
SK-MEL-5 = test system: SK-MEL-5
HCT-15 = test system: HCT-15
MCF7 = test system: MCF7
DU-145 = test system: DU-145
MOLT-4 = test system: MOLT-4
NCI-H522 = test system: NCI-H522
CCRF-CEM = test system: CCRF-CEM
SK-OV-3 = test system: SK-OV-3
OVCAR-3 = test system: OVCAR-3
HOP-92 = test system: HOP-92
HL-60 = test system: HL-60

SMILES	GI50 (NCI-H23)	GI50 (SW-620)	GI50 (HOP-62)	GI50 (OVCAR-5)	GI50 (NCI-H460)	GI50 (SF-268)	GI50 (Hs-578T)	GI50 (OVCAR-4)	GI50 (SNB-19)	GI50 (SK-MEL-5)	GI50 (HCT-15)	GI50 (MCF7)	GI50 (DU-145)	GI50 (MOLT-4)	GI50 (NCI-H522)	GI50 (CCRF-CEM)	GI50 (SK-OV-3)	GI50 (OVCAR-3)	GI50 (HOP-92)	GI50 (HL-60)
COc1cc2cc(C(=O)N3CC(CCl)c4c3cc(N)c3ccccc43)[nH]c2cc1OCCN(C)C (configuration not stated)	< 0.005 µM (active)	< 0.005 µM (active)	< 0.005 µM (active)	0.00713 µM (active)	< 0.005 µM (active)	< 0.005 µM (active)	0.027 µM (active)	0.00628 µM (active)	0.00644 µM (active)	< 0.005 µM (active)	0.00553 µM	< 0.005 µM (active)	< 0.005 µM (active)	0.0561 µM (active)	< 0.005 µM (active)	< 0.005 µM (active)	0.0105 µM (active)	0.00734 µM (active)	< 0.005 µM (active)	–
CCOC(=O)c1nnsc1NC(=O)NN	> 100 µM (inactive)	> 100 µM (inactive)	> 100 µM (inactive)	> 100 µM (inactive)	> 100 µM (inactive)	> 100 µM (inactive)	> 100 µM (inactive)	–	> 100 µM (inactive)	> 100 µM (inactive)	> 100 µM	> 100 µM (inactive)	> 100 µM (inactive)	> 10 µM (inactive)	> 100 µM (inactive)	> 100 µM (inactive)	> 100 µM (inactive)	> 100 µM (inactive)	–	> 100 µM (inactive)
COc1ccc(N2C(=O)C(=O)C3(CCCCC3)C2=O)c(OC)c1OC	> 100 µM (inactive)	> 100 µM (inactive)	–	> 100 µM (inactive)	–	> 100 µM (inactive)	> 100 µM (inactive)	> 100 µM (inactive)	> 100 µM (inactive)	> 100 µM (inactive)	> 100 µM	> 100 µM (inactive)	> 100 µM (inactive)	> 100 µM (inactive)	> 100 µM (inactive)	> 100 µM (inactive)	> 100 µM (inactive)	> 100 µM (inactive)	–	> 100 µM (inactive)
Cc1ccc(Nc2nnc3n2S(=O)(=O)c2cc(C)c(Cl)cc2S3)cc1	8.95 µM (inactive)	14.5 µM (inactive)	6.35 µM (inactive)	14.1 µM (inactive)	7.23 µM (inactive)	4.25 µM (inactive)	2.89 µM (inactive)	22.8 µM (inactive)	–	3.6 µM (inactive)	5.05 µM	5.26 µM (inactive)	8.09 µM (inactive)	4.25 µM (inactive)	2.18 µM (inactive)	–	–	2 µM (inactive)	4.89 µM (inactive)	3.48 µM (inactive)
CS(=O)(=O)N1CC(CI)c2ccc(O)cc21 (configuration not stated)	1.32 µM (inactive)	2.18 µM (inactive)	3.02 µM (inactive)	2.29 µM (inactive)	2.35 µM (inactive)	1.32 µM (inactive)	3.41 µM (inactive)	1.96 µM (inactive)	–	1.43 µM (inactive)	3.13 µM	0.925 µM (active)	3.05 µM (inactive)	0.809 µM (active)	1.15 µM (inactive)	0.807 µM (active)	–	2.89 µM (inactive)	2.18 µM (inactive)	1.79 µM (inactive)
C/C(C=O)=N\Nc1cc(C)c2ccccc2n1	12.4 µM (inactive)	24.7 µM (inactive)	11.2 µM (inactive)	17.2 µM (inactive)	–	16.9 µM (inactive)	17.3 µM (inactive)	12.8 µM (inactive)	19.1 µM (inactive)	15.6 µM (inactive)	10 µM	12.5 µM (inactive)	15.5 µM (inactive)	16.2 µM (inactive)	17.1 µM (inactive)	12 µM (inactive)	20.9 µM (inactive)	2.62 µM (inactive)	15.1 µM (inactive)	–
CCOC(=O)c1nc2ccc(C(F)(F)F)cc2nc1Oc1ccc(OC)cc1	–	> 100 µM (inactive)	> 100 µM (inactive)	> 100 µM (inactive)	> 100 µM (inactive)	> 100 µM (inactive)	> 100 µM (inactive)	> 100 µM (inactive)	> 100 µM (inactive)	> 100 µM (inactive)	> 100 µM	> 100 µM (inactive)	> 100 µM (inactive)	> 100 µM (inactive)	–	> 100 µM (inactive)	> 100 µM (inactive)	> 100 µM (inactive)	82.2 µM (inactive)	–
CCOC(=O)C1=CNC(C(=O)OCC)C1c1cccn1-c1ccc(Cl)cc1[N+](=O)[O-] (configuration not stated)	36.6 µM (inactive)	27.9 µM (inactive)	10 µM (inactive)	12.5 µM (inactive)	15.4 µM (inactive)	18.2 µM (inactive)	15.8 µM (inactive)	31.3 µM (inactive)	–	16.6 µM (inactive)	21.5 µM	20.6 µM (inactive)	29.5 µM (inactive)	22.1 µM (inactive)	16 µM (inactive)	24.5 µM (inactive)	32.7 µM (inactive)	10.6 µM (inactive)	17.6 µM (inactive)	–
